Assay results published in patent US12083185B2, “Small polymeric carriers for delivery of agents” (University of Pittsburgh—Of the Commonwealth System of …, priority 2018, dated 2024).

What was measured:
CDA = CDA expression in PANC02 cells by western blot; type: cell-based, murine; settings: vs control group
Text: As described above, CDA is overexpressed in pancreatic cancer, which mediates the metabolism of cytidine analogue drugs, such as gemcitabine of GEM, leading to the resistance to treatment with these drugs. Thus, reducing the CDA expression provides a new therapeutic window for pancreatic cancer. We examined the CDA expression in PANC02 cells treated with various formulations by western blot.

PANC02 cells = assay: MTT cytotoxicity assay in PANC02 cells; type: cell-based, murine; settings: 96 h
Method: MTT assay. The combinational effect of PTX and GEM as well as the cytotoxicity of blank and drug-loaded micelles were investigated by MTT assay using murine pancreatic carcinoma cell lines PANC02 and H7 cells. Cells were seeded into a 96-well plate at a density of 5000 cells/well and incubated in 100 μL of Dulbecco's Modified Eagle medium (DMEM) containing 10% FBS for 24 h. Cells were treated with various concentrations of free PTX, GEM or micelles solution for 96 h. Then, 20 μL of MTT solution (5 mg/mL) were added to each well and the cells were incubated for another 4 h. After removing the medium, 100 μL of DMSO were added into each well to dissolve MTT formazan crystals. The optical density was measured using a microplate reader and the cell viability was calculated with untreated cells as a control.

Question: How did the CDA expression (CDA) turn out when `Nc1ccn([C@@H]2O[C@H](CO)[C@@H](O)C2(F)F)c(=O)n1` [free GEM, gemcitabine] was run?
Answer: not altered

Question: And the “Cytotoxicity (cell killing effect, in words)” value (PANC02 cells)?
Answer: concentration-dependent cell killing effect
